Measurements published in the supplement of paper PMC10883282.
± gives the standard deviation of the averaged measurements.

Test system: SW982
Assay: relative viability vs DMSO control (72 h) (fraction); higher = more viable cells
In short: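 A 5 µM positive control and 0.1% DMSO vehicle ran alongside sarcoma cell lines seeded in 384-well plates to reach 80–90% confluence. Serially diluted compound, 2.5 µl from source plates of 10 mM to 0.0002 mM, was added after 24 h, and the plates were held 72 h at 37 °C, 5% CO2. Relative viability was worked out from ATPLite readings as percent growth averaged over up to triplicate wells. The values were rescaled so that 1 is full and 0 is none.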

Row | SMILES | relative viability (0.00017 µM) | relative viability (0.00051 µM) | relative viability (0.00152 µM) | relative viability (0.00457 µM) | relative viability (0.01372 µM) | relative viability (0.04115 µM) | relative viability (0.1235 µM) | relative viability (0.3704 µM) | relative viability (1.111 µM) | relative viability (3.333 µM) | relative viability (10 µM)
1 | CO[C@H]1C[C@@H]2CC[C@@H](C)[C@@](O)(O2)C(=O)C(=O)N2CCCC[C@H]2C(=O)O[C@H]([C@H](C)C[C@@H]2CC[C@@H](OP(C)(C)=O)[C@H](OC)C2)CC(=O)[C@H](C)/C=C(\C)[C@@H](O)[C@@H](OC)C(=O)[C@H](C)C[C@H](C)/C=C/C=C/C=C/1C [Ridaforolimus] | 1.05 ± 0.027 | 0.956 ± 0.041 | 0.867 ± 0.06 | 0.825 ± 0.066 | 0.755 ± 0.074 | 0.711 ± 0.036 | 0.679 ± 0.015 | 0.652 ± 0.028 | 0.652 ± 0.019 | 0.619 ± 0.0085 | 0.634 ± 0.03
2 | Cc1cnc(Nc2ccc(OCCN3CCCC3)cc2)nc1Nc1cccc(S(=O)(=O)NC(C)(C)C)c1 [Fedratinib] | 1.03 ± 0.012 | 1.03 ± 0.033 | 1.07 ± 0.021 | 1.07 ± 0.016 | 1.088 ± 0.0018 | 1.06 ± 0.024 | 0.846 ± 0.052 | 0.394 ± 0.013 | 0.161 ± 0.0068 | 0.0074 ± 0.0013 | 0.00487 ± 0.00038
3 | Cn1cc(-c2cc3c(N4CCN(c5ncc([C@@](C)(N)c6ccc(F)cc6)cn5)CC4)ncnn3c2)cn1 [Avapritinib] | 0.99 ± 0.026 | 0.956 ± 0.05 | 0.957 ± 0.093 | 0.93 ± 0.07 | 0.964 ± 0.061 | 0.962 ± 0.081 | 0.902 ± 0.033 | 0.928 ± 0.025 | 0.905 ± 0.044 | 0.894 ± 0.033 | 0.8071 ± 0.0062
4 | CN1CCN(c2ccc3nc(-c4c(N)c5c(F)cccc5[nH]c4=O)[nH]c3c2)CC1 [Dovitinib] | 1.02 ± 0.018 | 1.03 ± 0.041 | 1.01 ± 0.015 | 0.98 ± 0.027 | 1.01 ± 0.059 | 1.01 ± 0.059 | 0.94 ± 0.036 | 0.793 ± 0.012 | 0.483 ± 0.015 | 0.237 ± 0.022 | 0.0627 ± 0.033
